± gives the standard deviation of the averaged measurements.
The test systems below were run with T1, CC[C@@]1(O)C(=O)OCc2c1cc1n(c2=O)Cc2cc3ccccc3nc2-1 [CAMPTOTHECIN] (assay: surviving fraction relative to DMSO-only wells; higher = less growth inhibition). Conditions: 0.5 nM; exposure time: 5 days.
Summary of the method: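 Tumour cell lines were grown to log phase and seeded at 250–500 cells per well in 384-well plates. They were exposed continuously to inhibitors at 0.5, 1, 5, 10, 50, 100, 500 and 1000 nM for five days, beginning 24 hours after seeding. Surviving fraction is CellTiter-Glo luminescence normalised to the median of DMSO-only wells.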

Test System | surviving fraction
SCC90 HEADNECK | 0.823 ± 0.035
SG43 HEADNECK | 1.16 ± 0.13
SYO1 SYNOVIAL | 0.359 ± 0.023
T47D BREAST | 0.819 ± 0.035

Same assay, conditions: 1 nM; exposure time: 5 days

Test System | surviving fraction
SCC90 HEADNECK | 0.879 ± 0.043
SG43 HEADNECK | 1.18 ± 0.2
SYO1 SYNOVIAL | 0.663 ± 0.033
T47D BREAST | 0.878 ± 0.023

Same assay, conditions: 5 nM; exposure time: 5 days

Test System | surviving fraction
SCC90 HEADNECK | 0.904 ± 0.058
SG43 HEADNECK | 1.01 ± 0.11
SYO1 SYNOVIAL | 0.325 ± 0.026
T47D BREAST | 0.743 ± 0.019

Same assay, conditions: 10 nM; exposure time: 5 days

Test System | surviving fraction
SCC90 HEADNECK | 0.75 ± 0.046
SG43 HEADNECK | 0.854 ± 0.18
SYO1 SYNOVIAL | 0.15 ± 0.024
T47D BREAST | 0.528 ± 0.012

Same assay, conditions: 50 nM; exposure time: 5 days

Test System | surviving fraction
SCC90 HEADNECK | 0.343 ± 0.056
SG43 HEADNECK | 0.624 ± 0.044
SYO1 SYNOVIAL | 0.0272 ± 0.0011
T47D BREAST | 0.259 ± 0.013

Same assay, conditions: 100 nM; exposure time: 5 days

Test System | surviving fraction
SCC90 HEADNECK | 0.253 ± 0.032
SG43 HEADNECK | 0.329 ± 0.04
SYO1 SYNOVIAL | 0.0304 ± 0.00084
T47D BREAST | 0.236 ± 0.0055

Same assay, conditions: 500 nM; exposure time: 5 days

Test System | surviving fraction
SCC90 HEADNECK | 0.04 ± 0.0076
SG43 HEADNECK | 0.256 ± 0.054
SYO1 SYNOVIAL | 0.0254 ± 0.0012
T47D BREAST | 0.157 ± 0.006

Same assay, conditions: 1000 nM; exposure time: 5 days

Test System | surviving fraction
SCC90 HEADNECK | 0.0327 ± 0.0051
SG43 HEADNECK | 0.143 ± 0.037
SYO1 SYNOVIAL | 0.0321 ± 0.0019
T47D BREAST | 0.137 ± 0.0086

Each test system was assayed with CC(=O)NCC(=O)N1[C@@H]2CC[C@H]1c1ccc(Nc3ncc(C(F)(F)F)c(NC4CCC4)n3)cc12 (assay: area under dose-response curve of surviving fraction (unscaled, Aref=0) (surviving fraction x log10(nM)); higher = more resistant). Conditions: exposure time: 5 days; dose range 0.5-1000 nM.
Summary of the method: (§1)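 Three screens per tumour cell line were run in 384-well plates at eight inhibitor concentrations from 0.5 to 1000 nM over five days. Surviving fractions, from CellTiter-Glo luminescence normalised to DMSO-only wells, were fitted with 3-parameter logistic curves in the drc R package. The reported area under the curve is the unscaled activity area. It spans log10 dose, and Aref is 0.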

Test System | area under dose-response curve
SCC90 HEADNECK | 2.52
SG43 HEADNECK | 2.61
SYO1 SYNOVIAL | 1.98
T47D BREAST | 3.44

The test systems below were run with CC(=O)O[C@H]1C(=O)[C@@]2(C)[C@H]([C@H](OC(=O)c3ccccc3)[C@]3(O)C[C@H](OC(=O)[C@H](O)[C@@H](NC(=O)c4ccccc4)c4ccccc4)C(C)=C1C3(C)C)[C@]1(OC(C)=O)CO[C@@H]1C[C@@H]2O [PACLITAXEL] in the same assay as above. Conditions: exposure time: 5 days; dose range 0.5-1000 nM.
Summary of the method: as §1

Test System | area under dose-response curve
SCC90 HEADNECK | 1.1
SG43 HEADNECK | 1.9
SYO1 SYNOVIAL | 0.539
T47D BREAST | 1.04

Each test system was assayed with CC(=O)c1c(C)c2cnc(Nc3ccc(N4CCNCC4)cn3)nc2n(C2CCCC2)c1=O in the same assay as above. Conditions: exposure time: 5 days; dose range 0.5-1000 nM.
Summary of the method: as §1

Test System | area under dose-response curve
SCC90 HEADNECK | 3.7
SG43 HEADNECK | 2.84
SYO1 SYNOVIAL | 3.14
T47D BREAST | 3.62

These test systems were tested with T1, CAMPTOTHECIN in the same assay as above. Conditions: exposure time: 5 days; dose range 0.5-1000 nM.
Summary of the method: as §1

Test System | area under dose-response curve
SCC90 HEADNECK | 1.77
SG43 HEADNECK | 2.21
SYO1 SYNOVIAL | 0.528
T47D BREAST | 1.54

The test systems below were run with COCC[n+]1c2c(n(Cc3cnccn3)c1C)C(=O)c1ccccc1C2=O [YM155] in the same assay as above. Conditions: exposure time: 5 days; dose range 0.5-1000 nM.
Summary of the method: as §1

Test System | area under dose-response curve
SCC90 HEADNECK | 2.17
SG43 HEADNECK | 2.35
SYO1 SYNOVIAL | 1.25
T47D BREAST | 1.68

Each test system was assayed with COc1cc2ncnc(Nc3ccc(F)c(Cl)c3)c2cc1OCCCN1CCOCC1 [GEFITINIB] in the same assay as above. Conditions: exposure time: 5 days; dose range 0.5-1000 nM.
Summary of the method: as §1

Test System | area under dose-response curve
SCC90 HEADNECK | 2.63
SG43 HEADNECK | 2.21
SYO1 SYNOVIAL | 3.17
T47D BREAST | 3.54

These test systems were tested with C[C@]1(O)C[C@@H](c2nc(-c3ccc4ccc(-c5ccccc5)nc4c3)c3c(N)nccn32)C1 [OSI-906] in the same assay as above. Conditions: exposure time: 5 days; dose range 0.5-1000 nM.
Summary of the method: as §1

Test System | area under dose-response curve
SCC90 HEADNECK | 3.1
SG43 HEADNECK | 2.7
SYO1 SYNOVIAL | 2.64
T47D BREAST | 3.09

What follows are test systems tested with Cc1ccc(-c2cc(C(F)(F)F)nn2-c2ccc(S(N)(=O)=O)cc2)cc1 [CELECOXIB] in the same assay as above. Conditions: exposure time: 5 days; dose range 0.5-1000 nM.
Summary of the method: as §1

Test System | area under dose-response curve
SCC90 HEADNECK | 3.43
SG43 HEADNECK | 3.37
SYO1 SYNOVIAL | 3.18
T47D BREAST | 3.64

What follows are test systems tested with O=C(O)C1(C(=O)O)CCC1.[NH2-].[NH2-].[Pt+2] [CARBOPLATIN] in the same assay as above. Conditions: exposure time: 5 days; dose range 0.5-1000 nM.
Summary of the method: as §1

Test System | area under dose-response curve
SCC90 HEADNECK | 3.68
SG43 HEADNECK | 3.37
SYO1 SYNOVIAL | 3.25
T47D BREAST | 3.42

— the supplement of paper PMC6045584
